From patent US5834493A, “Indole derivatives as 5-HT1A and/or 5-HT2 ligands” (priority 1993, dated 1998) come the findings set out here.

One experiment addresses T1, 5-HT1A receptors (Rattus norvegicus, UniProt P19327).
T1 construct: The Hippocampi of these animals were homogeneized in 10 volumes of ice cold TRIS buffer; from tissue; host or cells: rat hippocampus (male Sprague Dawley), homogenate
T1 sequence (P19327 1-422): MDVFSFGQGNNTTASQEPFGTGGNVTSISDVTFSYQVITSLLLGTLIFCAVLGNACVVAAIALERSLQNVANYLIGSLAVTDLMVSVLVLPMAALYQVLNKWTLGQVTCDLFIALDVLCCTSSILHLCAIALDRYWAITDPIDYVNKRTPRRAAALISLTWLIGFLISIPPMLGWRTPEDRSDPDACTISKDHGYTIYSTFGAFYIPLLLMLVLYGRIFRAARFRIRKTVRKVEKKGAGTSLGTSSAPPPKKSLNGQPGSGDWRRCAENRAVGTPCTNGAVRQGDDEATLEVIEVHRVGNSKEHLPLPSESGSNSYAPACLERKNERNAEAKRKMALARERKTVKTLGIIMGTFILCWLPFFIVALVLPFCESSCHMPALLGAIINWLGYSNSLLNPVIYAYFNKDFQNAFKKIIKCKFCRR
The experiment in a line: 5-HT1A receptor binding ([3H]-8-OH-DPAT displacement, rat hippocampus homogenate). Set-up: species or system rat (male Sprague Dawley). The settings on record: [3H]-8-OH-DPAT 1.0-1.5 nM, 30° C., 15 min, pH 7.4, read-out: Affinity for 5-HT1A receptors, Ki. On the procedure:
(§1) Receptor binding studies on 5-HT1A and 5-HT2 receptors were carried out to determine the affinity of the test compounds.
Rats (male Sprague Dawley, 200-250 g) were used. The Hippocampi of these animals were homogeneized in 10 volumes of ice cold TRIS buffer (pH 7.4). The homogenate was diluted 1:400 (w:v) in the same buffer to have a final protein concentration of about 200 μg/mL, filtered and incubated at 37° C. for 10 min, before use.
Displacement experiments were performed by incubating the homogenate (980 μL) in the presence of [^3 H]-8OH-DPAT (1.0-1.5 nM) (10 μL) and of different concentrations of the test compounds dissolved in the test buffer (10 μL), at 30° C. for 15 min (final volume: 1 mL).
Non specific binding was determined in the presence of 100 μM 5-HT (10 μL). The separation of [3H]-8-OH-DPAT, free from that bound to the receptor, was carried out by the filtration technique (GF/B filters, Whatman). The radioactivity present was counted by liquid scintillation spectrometry.
The affinity values (Ki) for the compounds were obtained by a non linear least squares regression analysis on the basis of a one binding site model. The values were corrected on the basis of the radioligand occupancy on the receptors according to the equation: Ki=IC50 /(1+[C]/KD),where [C] and KD represent the concentration and the dissociation constant, respectively, of the radioligand used ([^3 H]-8-OH-DPAT).

In another experiment the target is T2, 5-HT2 receptors (Rattus norvegicus, UniProt P14842).
T2 construct: Cerebral cortices were homogenized in 10 volumes of ice cold 0.32M sucrose; from tissue; host or cells: rat cerebral cortex (male Sprague Dawley), membrane preparation
T2 sequence (P14842 whole entry): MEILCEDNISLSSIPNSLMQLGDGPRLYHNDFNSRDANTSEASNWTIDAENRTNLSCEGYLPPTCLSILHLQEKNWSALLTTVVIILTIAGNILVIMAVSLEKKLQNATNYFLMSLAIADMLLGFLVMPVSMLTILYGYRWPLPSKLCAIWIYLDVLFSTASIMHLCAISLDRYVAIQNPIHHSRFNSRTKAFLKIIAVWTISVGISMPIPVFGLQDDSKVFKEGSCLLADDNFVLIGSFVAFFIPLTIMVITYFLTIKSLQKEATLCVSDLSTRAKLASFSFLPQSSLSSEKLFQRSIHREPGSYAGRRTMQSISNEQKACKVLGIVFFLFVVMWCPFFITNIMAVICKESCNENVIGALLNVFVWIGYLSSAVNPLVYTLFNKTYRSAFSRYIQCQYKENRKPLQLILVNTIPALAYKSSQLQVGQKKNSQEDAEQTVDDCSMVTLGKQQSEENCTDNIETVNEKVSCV
Briefly: 5-HT2 receptor binding ([3H]-Ketanserine displacement, rat cerebral cortex). As to conditions: [3H]-Ketanserine 0.5-1.0 nM, 37° C., 10 min, pH 7.4, read-out: Affinity for 5-HT2 receptors, Ki. Set-up: species or system rat (male Sprague Dawley). On the procedure:
as §1
Rats (male Sprague Dawley, 200-250 g) were used. Cerebral cortices were homogenized in 10 volumes of ice cold 0.32M sucrose. After the centrifugation of the homogenate (1,000×g for 10 min) the supernatant was then recentrifuged at 48,000×g for 15 min. The resulting pellet was resuspended in 10 volumes of 50 mM TRIS buffer (pH 7.4), incubated at 37° C. for 10 min and recentrifuged at 48,000×g for 15 min. The residue was then resuspended in 10 volumes of 50 mM TRIS buffer (pH 7.4).
The tissue was diluted 1:100 (w:v) in 50 mM TRIS buffer (pH 7.4) to have a final protein concentration of about 200 μg/mL.
Displacement experiments were performed by incubating the homogenate (980 μL) in the presence of [^3 H]-Ketanserine (0.5-1.0 nM) (10 μL) and of different concentrations of the test compounds dissolved in the assay buffer (10 μL), at 37° C. for 10 min (final volume: 1 mL).
Non specific binding was determined in the presence of 100 μM Methysergide (10 μL). The separation of [^3 ]-Ketanserine free from that bound to the receptor was carried by the filtration technique (GF/B filters, Whatman). The radioactivity present was counted by liquid scintillation spectrometry.
The affinity values (Ki) for the compounds were obtained by non linear least squares regression analysis on the basis of a one binding site model. These values were corrected on the basis of the radioligand occupancy on the receptors according to the equation: Ki=IC50 /(1+[C]/KD), where [C] and KD represent the concentration and the dissociation constant, respectively, of the radioligand used ([^3 H]-Ketanserine).

Regarding `COc1ccc2[nH]cc(CC3=CCCN(C)C3)c2c1` [Compound 1, 5-methoxy-3-(N-methyl-1,2,5,6-tetrahydro-pyridin-3-yl-methyl)-1H-indole], the Ki on 5-HT1A receptors is 35 nM. `COc1ccc2[nH]cc(CC3=CCCN(CCOc4ccc(F)cc4)C3)c2c1` [Compound 2, 5-methoxy-3-[N-(4'-fluoro-phenoxy-ethyl)-1,2,5,6-tetrahydro-pyridin-3-yl-methyl]-1H-indole]: the Ki at 5-HT1A receptors stood at 10 nM; on 5-HT2 receptors it was 50 nM. For `COc1ccc2[nH]cc(CC3=CCCN(CCCC(=O)c4ccc(F)cc4)C3)c2c1` [Compound 9, 5-methoxy-3-[N-(4-(4-fluoro-phenyl)-4-oxo-butyl)-1,2,5,6-tetrahydro-pyridin-3-ylmethyl]-1H-indole], in that order: 30 nM and 15 nM. For `COc1ccc2[nH]cc(CC3=CCCN(CCC(=O)c4ccc(F)cc4)C3)c2c1` [Compound 11, 5-methoxy-3-[N-(3-(4-fluoro-phenyl)-3-oxo-propyl)-1,2,5,6-tetrahydro-pyridin-3-ylmethyl]-1H-indole], in that order: 30 nM and 20 nM. Taken in the same sequence, the figures for `COc1ccc2[nH]cc(CC3=CCCN(CCc4ccc(N)cc4)C3)c2c1` [Compound 13, 5-methoxy-3-[N-(2-(4-amino-phenyl)-ethyl)-1,2,5,6-tetrahydro-pyridin-3-ylmethyl]-1H-indole] were 100 nM and 50 nM.

Turning to `COc1ccc2[nH]cc(CC3=CCCN(CCCCc4ccc(F)cc4)C3)c2c1` [Compound 14, 5-methoxy-3-[N-(4-(4-fluoro-phenyl)-butyl)-1,2,5,6-tetrahydro-pyridin-3-ylmethyl]-1H-indole], the Ki at 5-HT1A receptors is 80 nM; at 5-HT2 receptors, 100 nM. Taken in the same sequence, the figures for `COc1ccc2[nH]cc(CC3=CCCN(CCCc4ccc(F)cc4)C3)c2c1` [Compound 15, 5-methoxy-3-[N-(3-(4-fluoro-phenyl)-propyl)-1,2,5,6-tetrahydro-pyridin-3-ylmethyl]-1H-indole] were 10 nM and 10 nM. `COc1ccc2[nH]cc(CC3=CCCN(CCNC(=O)c4ccc(F)cc4)C3)c2c1` [Compound 16]: the Ki on 5-HT1A receptors stood at 1 nM. `COc1ccc2[nH]cc(CC3=CCCN(CCNC(=O)c4cccs4)C3)c2c1` [Compound 17, 5-methoxy-3-[N-(2-(2-thiophene-carboxamide)-ethyl)-1,2,5,6-tetrahydro-pyridin-3-ylmethyl]-1H-indole]: at 5-HT1A receptors, the Ki is 1 nM. With `COc1ccc2[nH]cc(CC3=CCCN(CCCC(=O)c4cccs4)C3)c2c1` [Compound 32, 5-methoxy-3-[N-(4-(2-thienyl)-4-oxo-butyl)-1,2,5,6-tetrahydro-pyridin-3-ylmethyl]-1H-indole], the results for the Ki on 5-HT1A receptors and at 5-HT2 receptors were 30 nM and 10 nM, respectively.
